Experimental data from the supplement of paper PMC10331698.
± gives the standard deviation of the averaged measurements.

What was measured:
[1] = compound: O=C(O)C(F)(F)C(F)(F)C(F)(F)C(F)(F)C(F)(F)C(F)(F)C(F)(F)C(F)(F)C(F)(F)C(F)F [11-H-Perfluoroundecanoic acid]; assay: level (log10 ratio to DMSO vehicle control); higher = higher biomarker level / cell amount than vehicle control; conditions: in DMSO
Procedure: (§1)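 BioMAP Diversity Plus panel of 12 human primary cell co-culture systems (3C, 4H, LPS, SAg, BT, BF4T, BE3C, CASM3C, HDF3CGF, KF3CT, MyoF, Mphg). Compounds were added 1 h before stimulation and left for 24 h (MyoF 48 h; BT 72 h for soluble read-outs or 6 d for IgG). Biomarkers were read by ELISA, cytotoxicity by SRB, PBMC viability and proliferation by Alamar Blue. Each well value was divided by the mean of 8 DMSO control wells on the same plate and log10 transformed; duplicate blinded samples were tested at 4 concentrations.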

[2] = compound: T1, C=CC(=O)OCC(F)(F)C(F)(F)C(F)(F)COC(=O)C=C [1H,1H,5H,5H-Perfluoro-1,5-pentanediol diacrylate]; assay: as above; conditions: 6700 nM; in DMSO
Procedure: as §1

[3] = compound: NS(=O)(=O)C(F)(F)C(F)(F)C(F)(F)C(F)(F)C(F)(F)C(F)(F)F [Perfluorohexanesulfonamide]; assay: as above; conditions: in DMSO
Procedure: as §1

[4] = compound: O=S(=O)(O)CCC(F)(F)C(F)(F)C(F)(F)C(F)(F)C(F)(F)C(F)(F)F [6:2 Fluorotelomer sulfonic acid]; assay: as above; conditions: in DMSO
Procedure: as §1

[5] = compound: OCC(F)(F)C(F)(F)C(F)(F)CO [Hexafluoroamylene glycol]; assay: as above; conditions: in DMSO
Procedure: as §1

[6] = compound: COC(=O)C(F)(F)C(F)(F)OC(F)(C(F)(F)F)C(F)(F)OC(F)=C(F)F [Methyl perfluoro(3-(1-ethenyloxypropan-2-yloxy)propanoate)]; assay: as above; conditions: in DMSO
Procedure: as §1

[7] = compound: FC(F)(F)C(F)(F)CNCC(F)(F)C(F)(F)F [Bis(1H,1H-perfluoropropyl)amine]; assay: as above; conditions: in DMSO
Procedure: as §1

[8] = compound: O=S(=O)(O)C(F)(F)C(F)(F)C(F)(F)C(F)(F)C(F)(F)C(F)(F)C(F)(F)C(F)(F)C(F)(F)C(F)(F)F [Sodium perfluorodecanesulfonate]; assay: as above; conditions: in DMSO
Procedure: as §1

[9] = compound: O=C(O)C=CC(F)(C(F)(F)F)C(F)(F)F [3-(Perfluoroisopropyl)-2-propenoic acid]; assay: as above; conditions: in DMSO
Procedure: as §1

[10] = compound: C=C(C)C(=O)OCCC(F)(F)C(F)(F)C(F)(F)C(F)(F)C(F)(F)C(F)(F)F [6:2 Fluorotelomer methacrylate]; assay: as above; conditions: in DMSO
Procedure: as §1

[11] = compound: FC(F)(F)C(F)(F)C(F)(F)C(F)(F)C(F)(F)C(F)(F)CC1CO1 [3-(Perfluorohexyl)-1,2-epoxypropane]; assay: as above; conditions: in DMSO
Procedure: as §1

[12] = compound: FC(F)(F)C(F)(F)C(F)(F)CI [Heptafluorobutyl iodide]; assay: as above; conditions: in DMSO
Procedure: as §1

[13] = compound: NC(=O)C(F)(F)C(F)(F)C(F)(F)C(F)(F)C(N)=O [Octafluoroadipamide]; assay: as above; conditions: in DMSO
Procedure: as §1

[14] = compound: FC(F)(F)C(F)(F)C(F)(F)CC1CO1 [1H,1H-Heptafluorobutyl epoxide]; assay: as above; conditions: in DMSO
Procedure: as §1

[15] = compound: NC(=O)C(F)(F)C(F)(F)C(F)(F)C(F)F; assay: as above; conditions: in DMSO
Procedure: as §1

[16] = compound: O=S(=O)(F)C(F)(F)C(F)(F)C(F)(F)C(F)(F)C(F)(F)C(F)(F)C(F)(F)C(F)(F)F [Perfluorooctanesulfonyl fluoride]; assay: as above; conditions: in DMSO
Procedure: as §1

[17] = compound: NC(=O)C(F)(F)C(F)(F)C(F)(F)C(F)(F)F [Nonafluoropentanamide]; assay: as above; conditions: in DMSO
Procedure: as §1

[18] = compound: FC(F)(F)C(F)(F)C(F)(F)C(F)(F)C(F)(F)C(F)(F)C(F)(F)I [1-Iodopentadecafluoroheptane]; assay: as above; conditions: in DMSO
Procedure: as §1

[19] = compound: O=S(=O)(Cl)C(F)(F)C(F)(F)C(F)(F)C(F)(F)C(F)(F)C(F)(F)C(F)(F)C(F)(F)F [Perfluoro-1-octanesulfonyl chloride]; assay: as above; conditions: in DMSO
Procedure: as §1

[20] = compound: T1, 1H,1H,5H,5H-Perfluoro-1,5-pentanediol diacrylate; assay: LOEC (log10 uM (lowest observed effect concentration))
Procedure: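 BioMAP Diversity Plus panel in human primary cell co-cultures, 4 concentrations in duplicate blinded samples. Responses are log10 fold change versus DMSO control, processed with tcpl v2.1.0. A hit is called when responses at any concentration exceed the cutoff (the larger of 3*bmad or log10(1.2)); the lowest observed effect concentration (modl_ga, log10 uM) is reported for hits.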

## BF4T:CXCL8/IL-8
[1]; 6700 nM
  level (log10): 0.0575 ± 0.019
[1]; 20000 nM
  level (log10): 0.0005 ± 0.026
[2]
  level (log10): -0.0315 ± 0.037
[3]; 6700 nM
  level (log10): -0.031 ± 0.052
[3]; 20000 nM
  level (log10): -0.051 ± 0.034
[3]; 60000 nM
  level (log10): -0.073 ± 0.02
[4]; 6700 nM
  level (log10): 0.069 ± 0.058
[4]; 20000 nM
  level (log10): 0.0625 ± 0.044
[4]; 60000 nM
  level (log10): 0.0805 ± 0.057
[5]; 6700 nM
  level (log10): -0.018
[5]; 20000 nM
  level (log10): -0.002 ± 0.0014
[5]; 60000 nM
  level (log10): 0.0175 ± 0.033
[6]; 6700 nM
  level (log10): 0.0395 ± 0.016
[6]; 20000 nM
  level (log10): 0.095 ± 0.0099
[7]; 6700 nM
  level (log10): -0.0295 ± 0.013
[7]; 20000 nM
  level (log10): -0.027 ± 0.0028
[7]; 60000 nM
  level (log10): -0.0105 ± 0.021
[8]; 1500 nM
  level (log10): 0.0305 ± 0.069
[8]; 4400 nM
  level (log10): 0.034 ± 0.0099
[8]; 13000 nM
  level (log10): 0.0995 ± 0.021
[8]; 40000 nM
  level (log10): 0.136 ± 0.0057
[9]; 6700 nM
  level (log10): 0.0055 ± 0.012
[9]; 20000 nM
  level (log10): -0.0015 ± 0.0064
[9]; 60000 nM
  level (log10): 0.001 ± 0.021
[10]; 6700 nM
  level (log10): 0.032 ± 0.061
[10]; 20000 nM
  level (log10): 0.028 ± 0.037
[10]; 60000 nM
  level (log10): 0.0435 ± 0.033
[11]; 6700 nM
  level (log10): 0.013 ± 0.02
[11]; 20000 nM
  level (log10): -0.02 ± 0.028
[11]; 60000 nM
  level (log10): 0.0075 ± 0.0064
[12]; 6700 nM
  level (log10): 0.0085 ± 0.029
[12]; 20000 nM
  level (log10): 0.061 ± 0.11
[12]; 60000 nM
  level (log10): 0.0505 ± 0.063
[13]; 6700 nM
  level (log10): -0.0185 ± 0.0064
[13]; 20000 nM
  level (log10): -0.022 ± 0.011
[13]; 60000 nM
  level (log10): -0.003 ± 0.044
[14]; 6700 nM
  level (log10): 0.023 ± 0.041
[14]; 20000 nM
  level (log10): 0.0165 ± 0.03
[14]; 60000 nM
  level (log10): 0.0325 ± 0.05
[15]; 6700 nM
  level (log10): 0 ± 0.0071
[15]; 20000 nM
  level (log10): -0.0105 ± 0.005
[15]; 60000 nM
  level (log10): -0.009 ± 0.0071
[16]; 6700 nM
  level (log10): 0.0175 ± 0.011
[16]; 20000 nM
  level (log10): 0.015 ± 0.0028
[16]; 60000 nM
  level (log10): 0.0355 ± 0.005
[17]; 6700 nM
  level (log10): 0.055 ± 0.021
[17]; 20000 nM
  level (log10): 0.028 ± 0.057
[17]; 60000 nM
  level (log10): 0.0235 ± 0.088
[18]; 6700 nM
  level (log10): 0.0515 ± 0.079
[18]; 20000 nM
  level (log10): 0.0425 ± 0.044
[19]; 6700 nM
  level (log10): 0.002 ± 0.024
[19]; 20000 nM
  level (log10): 0.0225 ± 0.012
[19]; 60000 nM
  level (log10): -0.009 ± 0.018

## KF3CT:CXCL9/MIG
[1]; 6700 nM
  level (log10): -0.006 ± 0.0042
[1]; 20000 nM
  level (log10): -0.028 ± 0.0028
[2]
  level (log10): -0.0275 ± 0.013
[3]; 6700 nM
  level (log10): 0.0005 ± 0.0035
[3]; 20000 nM
  level (log10): -0.0075 ± 0.016
[3]; 60000 nM
  level (log10): -0.008 ± 0.0057
[4]; 6700 nM
  level (log10): 0.0005 ± 0.013
[4]; 20000 nM
  level (log10): -0.0025 ± 0.022
[4]; 60000 nM
  level (log10): 0.0005 ± 0.013
[5]; 6700 nM
  level (log10): 0.0155 ± 0.00071
[5]; 20000 nM
  level (log10): -0.003 ± 0.0014
[5]; 60000 nM
  level (log10): 0.014 ± 0.011
[6]; 6700 nM
  level (log10): -0.013 ± 0.013
[6]; 20000 nM
  level (log10): -0.0105 ± 0.025
[7]; 6700 nM
  level (log10): 0.0085 ± 0.016
[7]; 20000 nM
  level (log10): -0.001 ± 0.0028
[7]; 60000 nM
  level (log10): 0.007 ± 0.011
[8]; 1500 nM
  level (log10): 0.0005 ± 0.0064
[8]; 4400 nM
  level (log10): -0.0045 ± 0.0021
[8]; 13000 nM
  level (log10): 0.0015 ± 0.0092
[8]; 40000 nM
  level (log10): 0 ± 0.0042
[9]; 6700 nM
  level (log10): -0.0005 ± 0.012
[9]; 20000 nM
  level (log10): 0.0005 ± 0.011
[9]; 60000 nM
  level (log10): 0 ± 0.0028
[10]; 6700 nM
  level (log10): 0.012 ± 0.0042
[10]; 20000 nM
  level (log10): 0.01 ± 0.0028
[10]; 60000 nM
  level (log10): 0.01 ± 0.02
[11]; 6700 nM
  level (log10): 0
[11]; 20000 nM
  level (log10): 0.01 ± 0.0057
[11]; 60000 nM
  level (log10): 0.0115 ± 0.0021
[12]; 6700 nM
  level (log10): -0.005 ± 0.0014
[12]; 20000 nM
  level (log10): -0.008 ± 0.013
[12]; 60000 nM
  level (log10): -0.003 ± 0.0071
[13]; 6700 nM
  level (log10): 0.0075 ± 0.0064
[13]; 20000 nM
  level (log10): 0.0035 ± 0.005
[13]; 60000 nM
  level (log10): 0.0075 ± 0.005
[14]; 6700 nM
  level (log10): -0.0095 ± 0.00071
[14]; 20000 nM
  level (log10): -0.002 ± 0.025
[14]; 60000 nM
  level (log10): -0.0085 ± 0.012
[15]; 6700 nM
  level (log10): 0.019 ± 0.018
[15]; 20000 nM
  level (log10): 0.006 ± 0.02
[15]; 60000 nM
  level (log10): 0.0145 ± 0.0078
[16]; 6700 nM
  level (log10): 0.007 ± 0.0057
[16]; 20000 nM
  level (log10): -0.007 ± 0.0085
[16]; 60000 nM
  level (log10): 0.006 ± 0.0085
[17]; 6700 nM
  level (log10): 0.006 ± 0.0042
[17]; 20000 nM
  level (log10): 0.011 ± 0.0085
[17]; 60000 nM
  level (log10): 0.007 ± 0.0099
[18]; 6700 nM
  level (log10): 0.0115 ± 0.022
[18]; 20000 nM
  level (log10): 0.012 ± 0.014
[19]; 6700 nM
  level (log10): -0.0045 ± 0.005
[19]; 20000 nM
  level (log10): -0.002 ± 0.0057
[19]; 60000 nM
  level (log10): 0.005 ± 0.0042

## LPS TNFa down
[20]
  LOEC (log10 uM): 1.3
